According to patent US20150045410A1, “METHOD OF REGULATING CFTR EXPRESSION AND PROCESSING” (University of Iowa Research Foundation, priority 2012, published 2015):

How the values were obtained:
[1] = tested on: CFTR; assay: Transepithelial conductance and current (Ussing chamber) in primary human airway epithelia; format: cell-based
Protocol: Airway epithelia from human trachea and primary bronchus removed from organs donated for research were cultured at the air-liquid interface (ALI) (Karp, P. H. et al. An in vitro model of differentiated human airway epithelia. Methods for establishing primary cultures. Methods Mol. Biol. 188, 115-137 (2002)). These studies were approved by the Institutional Review Board of the University of Iowa. Briefly, airway epithelial cells were dissociated from native tissue by pronase enzyme digestion. Permeable membrane inserts (0.6 cm^2 Millipore-PCF, 0.33 cm^2 Costar-Polyester) pre-coated with human placental collagen (IV, Sigma) were seeded with freshly dissociated epithelia. Seeding culture media used was DMEM/F-12 medium supplemented with 5% FBS, 50 units/mL penicillin, 50 μg/mL streptomycin, 50 μg/mL gentamicin, 2 μg/mL fluconazole, and 1.25 μg/mL amphotericin B. For epithelia from cystic fibrosis (CF) patients, the following additional antibiotics were used for the first 5 days: 77 μg/mL ceftazidime, 12.5 μg/mL imipenem and cilastatin, 80 μg/mL tobramycin, 25 μg/mL piperacillin and tazobactam, 20 μg/mL sulfamethoxazole, and 4 μg/mL trimethoprim. After seeding, the cultures were maintained in DMEM/F-12 medium supplemented with 2% Ultroser G (USG, Pall Biosepra) and the above listed antibiotics.
Transepithelial Cl^− current measurements were made in Ussing chambers about 2 weeks post-seeding (Itani, 0. A. et al. Human cystic fibrosis airway epithelia have reduced Cl− conductance but not increased Na+ conductance. Proc. Natl. Acad. Sci. USA 108, 10260-10265 (2011)). Briefly, primary cultures were mounted in a modified Ussing chamber (Jim's Instruments, 8 wells per instrument). Transepithelial Cl^− current was measured under short-circuit current conditions. Cultures were incubated overnight with 10 μM forskolin and 100 μM 3-isobutyl-1-methylxanthine (IBMX). After measuring baseline current, the transepithelial current (It) response to sequential apical addition of 100 μM amiloride (Amil), 100 μM 4,4′-diisothiocyanoto-stilbene-2,2′-disulfonic acid (DIDS), 4.8 mM [Cl^−], 10 μM forskolin and 100 μM 3-isobutyl-1-methylxanthine (IBMX), and 100 μM GlyH-101 was measured. Studies were conducted with a Cl^− concentration gradient containing 135 mM NaCl, 1.2 mM MgCl2, 1.2 mM CaCl2, 2.4 mM K2PO4, 0.6 mM KH2PO4, 5 mM dextrose, and 5 mM Hepes (pH 7.4) on the basolateral surface, and gluconate substituted for Cl^− on the apical side. […]

[2] = tested on: CFTR-ΔF508; assay: CFTR-ΔF508 mRNA and protein in primary cultures of CF airway epithelia; format: cell-based, human
Protocol: Airway epithelia from human trachea and primary bronchus removed from organs donated for research were cultured at the air-liquid interface (ALI) (Karp, P. H. et al. An in vitro model of differentiated human airway epithelia. Methods for establishing primary cultures. Methods Mol. Biol. 188, 115-137 (2002)). These studies were approved by the Institutional Review Board of the University of Iowa. Briefly, airway epithelial cells were dissociated from native tissue by pronase enzyme digestion. Permeable membrane inserts (0.6 cm^2 Millipore-PCF, 0.33 cm^2 Costar-Polyester) pre-coated with human placental collagen (IV, Sigma) were seeded with freshly dissociated epithelia. […]
First-strand cDNA was synthesized using SuperScript® II (Invitrogen), and oligo-dT and random-hexamer primers. […] To quantitate miRNAs, TaqMan® microRNA Assays (Applied Biosystems) were obtained for miR-138, RNU48 (control) and 8 other miRNAs (negative control, miRs-21, -24, -26a, -200c, -146a, -146b, -27a*, -134). […] All experiments were performed in quadruplicate. mRNA and miRNA quantification in cell lines represents 8 independent transfections in 4 separate experiments. mRNA quantification in human primary airway epithelial cultures represent 8 independent transfections in 8 non-CF donors and 4 CF donors. […]

| Substance | It (transepithelial current) response to cAMP-dependent stimulation [1] | cAMP-stimulated Gt [1] | CFTR-ΔF508 mRNA and protein [2] |
| --- | --- | --- | --- |
| SIN3A DsiRNA: Dicer-substrate siRNA against SIN3A, sense SEQ ID NO: 6, antisense SEQ ID NO: 7 (sense GCGAUACAUGAAUUCAGAUACUACC; antisense GGUAGUAUCUGAAUUCAUGUAUCGCUC; chemistry not given here) | no change | increased | increased |
| miR-138 mimic: synthetic modified RNA duplex, sense SEQ ID NO: 4, antisense SEQ ID NO: 5, showing miR-138-like activity | no change | increased | increased |
